Reference: patent US10442808B2, “Pyrazolo pyrimidine derivatives and their use as MALT1 inhbitors” (NOVARTIS AG, priority 2014, dated 2019)

System: IL2 promoter
Test: Human IL2 promoter reporter gene assay (RGA) in Jurkat cells
Type: cell-based
Conditions: […], heading: IL2 reporter gene assay IC50, anti-CD28 mAb + PMA stimulation 5.5 h
Method: Human IL2 Promoter Reporter Gene Assay (RGA) in Jurkat Cells
The transfected Jurkat clone K22 290_H23 was propagated in RPMI 1640 supplemented with 10% heat inactivated fetal calf serum, 50 μM 2-mercaptoethanol and 1 mg/ml Geneticin. The cell concentration should not exceed 1×10e6/ml during culturing. The cells should not exceed passage 30. Prior to the assay the cells were washed and prepared to the concentration of 2×10e6 cells/ml.
Compound dilutions were made as 2×-concentrated solutions then diluted ½ by addition to cells. Two hundred and fifty μl of compound dilution and 250 μl of cells were mixed together in wells of a 96-deep well plate. Cells/compounds premix were incubated 30 min at 37° C. and 5% CO2 directly in the deep well plate.
After pre-incubation of cells with compounds, cells were stimulated with anti-CD28 mAb (clone 15E8) at 3 μg/ml+PMA at 1 μg/ml. Both co-stimulants were diluted in culture medium at a 10×-concentrated solution. 10 μl of co-stimulants were pipetted into the white 96-well plates and 100 μl of cell/compound mix was immediately added in duplicates. The cells were stimulated for 5.5 h at 37° C. and 5% CO2.
After cell stimulation, 50 μl of BriteLitePlus reagent (Perkin Elmer) was added to each well and the bioluminescence was measured with a Wallac EnVision reader (Perkin Elmer).

SMILES	IC50
Cc1cnn(-c2ncc(NC(=O)Nc3cnc4cc(Cl)nn4c3C(C)C)cc2Cl)n1 [Example 22, 1-(5-chloro-6-(4-methyl-2H-1,2,3-triazol-2-yl)pyridin-3-yl)-3-(2-chloro-7-isopropylpyrazolo[1,5-a]pyrimidin-6-yl)urea]	0.214 µM
COCC(C)(OC)c1c(NC(=O)Nc2cnc(-n3nccn3)c(Cl)c2)cnc2cc(Cl)nn12 (stereo not drawn) [Example 81, 1-(5-chloro-6-(2H-1,2,3-triazol-2-yl)pyridin-3-yl)-3-(2-chloro-7-(1,2-dimethoxypropan-2-yl)pyrazolo[1,5-a]pyrimidin-6-yl)urea]	0.157 µM
Cc1c(NC(=O)Nc2cnc(-n3nccn3)c(Cl)c2)cnc2cc(Cl)nn12 [Example 62, 1-(5-chloro-6-(2H-1,2,3-triazol-2-yl)pyridin-3-yl)-3-(2-chloro-7-methylpyrazolo[1,5-a]pyrimidin-6-yl)urea]	0.14 µM
CO[C@@H](C)c1c(NC(=O)Nc2cnc(-n3nccn3)c(C(F)(F)F)c2)cnc2cc(F)nn12 [Example 94, (S)-1-(6-(2H-1,2,3-triazol-2-yl)-5-(trifluoromethyl)pyridin-3-yl)-3-(2-fluoro-7-(1-methoxyethyl)pyrazolo[1,5-a]pyrimidin-6-yl)urea]	0.484 µM
COc1ncc(NC(=O)Nc2cnc3cc(Cl)nn3c2C(C)C)cc1Cl [Example 18, 1-(5-chloro-6-methoxypyridin-3-yl)-3-(2-chloro-7-isopropylpyrazolo[1,5-a]pyrimidin-6-yl)urea]	0.245 µM
CO[C@@H](C)c1c(NC(=O)Nc2cc(Cl)cnc2OCCN(C)C)cnc2cc(Cl)nn12 [Example 99, (S)-1-(5-chloro-2-(2-(dimethylamino)ethoxy)pyridin-3-yl)-3-(2-chloro-7-(1-methoxyethyl)pyrazolo[1,5-a]pyrimidin-6-yl)urea]	0.054 µM
C[C@@H](O)c1c(NC(=O)Nc2cnc(-n3nccn3)c(C(F)(F)F)c2)cnc2cc(Cl)nn12 [Example 113, (R)-1-(6-(2H-1,2,3-triazol-2-yl)-5-(trifluoromethyl)pyridin-3-yl)-3-(2-chloro-7-(1-hydroxyethyl)pyrazolo[1,5a]pyrimidin-6-yl)urea]	0.078 µM
CC(C)OCc1c(NC(=O)Nc2cnc(-n3nccn3)c(Cl)c2)cnc2cc(Cl)nn12 [Example 61, 1-(5-chloro-6-(2H-1,2,3-triazol-2-yl)pyridin-3-yl)-3-(2-chloro-7-(isopropoxymethyl)pyrazolo[1,5-a]pyrimidin-6-yl)urea]	0.014 µM
CC(C)(C)c1c(NC(=O)Nc2cnc(-n3nccn3)c(Cl)c2)cnc2cc(Cl)nn12 [Example 34, 1-(7-(tert-butyl)-2-chloropyrazolo[1,5-a]pyrimidin-6-yl)-3-(5-chloro-6-(2H-1,2,3-triazol-2-yl)pyridin-3-yl)urea]	0.145 µM
COCCC(OC)c1c(NC(=O)Nc2cnc(-n3nccn3)c(Cl)c2)cnc2cc(Cl)nn12 (stereo not drawn) [Example 64, 1-(5-chloro-6-(2H-1,2,3-triazol-2-yl)pyridin-3-yl)-3-(2-chloro-7-(1,3-dimethoxypropyl)pyrazolo[1,5-a]pyrimidin-6-yl)urea]	0.032 µM
COC[C@H](C)c1c(NC(=O)Nc2cnc(-n3nccn3)c(C(F)(F)F)c2)cnc2cc(Cl)nn12 [Example 111, (R)-1-(6-(2H-1,2,3-triazol-2-yl)-5-(trifluoromethyl)pyridin-3-yl)-3-(2-chloro-7-(1-methoxypropan-2-yl)pyrazolo[1,5-a]pyrimidin-6-yl)urea]	0.138 µM
O=C(Nc1cnc(-n2nccn2)c(Cl)c1)Nc1cnc2cc(Cl)nn2c1C1CC12CCOC2 (stereo not drawn) [Example 68, 1-(5-chloro-6-(2H-1,2,3-triazol-2-yl)pyridin-3-yl)-3-(2-chloro-7-(5-oxaspiro[2.4]heptan-1-yl)pyrazolo[1,5-a]pyrimidin-6-yl)urea]	0.076 µM
CO[C@H](C)CO[C@@H](C)c1c(NC(=O)Nc2cnc(-n3nccn3)c(Cl)c2)cnc2cc(Cl)nn12 [Example 85, 1-(5-chloro-6-(2H-1,2,3-triazol-2-yl)pyridin-3-yl)-3-(2-chloro-7-((S)-1-((R)-2 methoxypropoxy)ethyl)pyrazolo[1,5-a]pyrimidin-6-yl)urea]	0.068 µM
CC1(c2c(NC(=O)Nc3ccnc(C(F)(F)F)c3)cnc3cc(Cl)nn23)CCCO1 (stereo not drawn) [Example 36, 1-(2-chloro-7-(2-methyltetrahydrofuran-2-yl)pyrazolo[1,5-a]pyrimidin-6-yl)-3-(2-(trifluoromethyl)pyridin-4-yl)urea]	0.043 µM
COCCO[C@@H](C)c1c(NC(=O)Nc2cnc(OC(F)F)c(Cl)c2)cnc2cc(Cl)nn12 [Example 97, (S)-1-(5-chloro-6-(difluoromethoxy)pyridin-3-yl)-3-(2-chloro-7-(1-(2-methoxyethoxy)ethyl)pyrazolo[1,5-a]pyrimidin-6-yl)urea]	0.218 µM
COc1ncc(NC(=O)Nc2cnc3cc(Cl)nn3c2C2CCC(C)O2)cc1Cl (stereo not drawn) [Example 87, 1-(5-chloro-6-methoxypyridin-3-yl)-3-(2-chloro-7-(5-methyltetrahydrofuran-2-yl)pyrazolo[1,5-a]pyrimidin-6-yl)urea]	0.041 µM
CN(C)C1(c2c(NC(=O)Nc3cnc(-n4nccn4)c(Cl)c3)cnc3cc(Cl)nn23)CC1 [Example 88, 1-(5-chloro-6-(2H-1,2,3-triazol-2-yl)pyridin-3-yl)-3-(2-chloro-7-(1-(dimethylamino)cyclopropyl)pyrazolo[1,5-a]pyrimidin-6-yl)urea]	0.084 µM
CO[C@@H](C)c1c(NC(=O)Nc2ccnc(C#N)c2)cnc2cc(Cl)nn12 [Example 105, (S)-1-(2-chloro-7-(1-methoxyelhyl)pyrazolo[1,5-a]pyrimidin-6-yl)-3-(2-cyanopyridin-4-yl)urea]	0.112 µM
CO[C@@H](C)c1c(NC(=O)Nc2ccnc(C(F)F)c2)cnc2cc(Cl)nn12 [Example 92, (S)-1-(2-chloro-7-(1-methoxyethyl)pyrazolo [1,5-a]pyrimidin-6-yl)-3-(2-(difluoromethyl)pyridin-4-yl)urea]	0.024 µM
C[C@@H](OCc1ccccc1)c1c(NC(=O)Nc2cnc(-n3nccn3)c(C(F)(F)F)c2)cnc2cc(Cl)nn12 [Example 65, (R)-1-(6-(2H-1,2,3-triazol-2-yl)-5-(trifluoromethyl)pyridin-3-yl)-3-(7-(1-(benzyloxy)ethyl)-2-chloropyrazolo[1,5-a]pyrimidin-6-yl)urea]	0.072 µM
Cc1ncn(-c2ccc(NC(=O)Nc3cnc4cc(Cl)nn4c3C(C)C)cc2C#N)n1 [Example 19, 1-(2-chloro-7-isopropylpyrazolo[1,5-a]pyrimidin-6-yl)-3-(3-cyano-4-(3-methyl-1H-1,2,4-triazol-1-yl)phenyl)urea]	0.104 µM
COC[C@@H](C)c1c(NC(=O)Nc2cnc(-n3nccn3)c(C(F)(F)F)c2)cnc2cc(Cl)nn12 [Example 110, (S)-1-(6-(2H-1,2,3-triazol-2-yl)-5-(trifluoromethyl)pyridin-3-yl)-3-(2-chloro-7-(1-methoxypropan-2-yl)pyrazolo[1,5-a]pyrimidin-6-yl)urea]	0.041 µM
COC[C@H](C)c1c(NC(=O)Nc2cnc(-n3nccn3)c(Cl)c2)cnc2cc(Cl)nn12 [Example 45, (R)-1-(5-chloro-6-(2H-1,2,3-triazol-2-yl)pyridin-3-yl)-3-(2-chloro-7-(1-methoxypropan-2-yl)pyrazolo[1,5-a]pyrimidin-6-yl)urea]	0.063 µM
COCC1(c2c(NC(=O)Nc3ccnc(C(F)(F)F)c3)cnc3cc(Cl)nn23)CCC1 [Example 51, 1-(2-chloro-7-(1-(methoxymethyl)cyclobutyl)pyrazolo[1,5-a]pyrimidin-6-yl)-3-(2-(trifluoromethyl)pyridin-4-yl)urea]	0.267 µM
CO[C@@H](C)c1c(NC(=O)Nc2cncc(C#N)c2)cnc2cc(Cl)nn12 [Example 8, (S)-1-(2-chloro-7-(1-methoxyethyl)pyrazolo[1,5-a]pyrimidin-6-yl)-3-(5-cyanopyridin-3-yl)urea]	0.109 µM
COCC1(c2c(NC(=O)Nc3cnc(-n4nccn4)c(Cl)c3)cnc3cc(C)nn23)CC1 [Example 78, 1-(5-chloro-6-(2H-1,2,3-triazol-2-yl)pyridin-3-yl)-3-(7-(1-(methoxymethyl)cyclopropyl)-2-methylpyrazolo[1,5-a]pyrimidin-6-yl)urea]	0.927 µM
COc1ncc(NC(=O)Nc2cnc3cc(Cl)nn3c2[C@H](C)OC)cc1Cl [Example 9, (S)-1-(5-chloro-6-methoxypyridin-3-yl)-3-(2-chloro-7-(1-methoxyethyl)pyrazolo [1,5-a]pyrimidin-6-yl)urea]	0.019 µM
O=C(Nc1cnc(-n2nccn2)c(C(F)(F)F)c1)Nc1cnc2cc(Cl)nn2c1-c1ccco1 [Example 63, 1-(6-(2H-1,2,3-triazol-2-yl)-5-(trifluoromethyl)pyridin-3-yl)-3-(2-chloro-7-(furan-2-yl)pyrazolo[1,5-a]pyrimidin-6-yl)urea]	0.091 µM
CC1(c2c(NC(=O)Nc3cnc(-n4nccn4)c(Cl)c3)cnc3cc(Cl)nn23)CC1 [Example 16, 1-(5-chloro-6-(2H-1,2,3-triazol-2-yl)pyridin-3-yl)-3-(2-chloro-7-(1-methylcyclopropyl)pyrazolo[1,5-a]pyrimidin-6-yl)urea]	0.207 µM
CC1(c2c(NC(=O)Nc3ccnc(C(F)(F)F)c3)cnc3cc(Cl)nn23)CC1 [Example 17, 1-(2-chloro-7-(1-methylcyclopropyl)pyrazolo[1,5-a]pyrimidin-6-yl)-3-(2-(trifluoromethyl)pyridin-4-yl)urea]	0.149 µM
